What was measured:
[1] = Dye-lipid binding by fluorescence lipid titration; type: physicochemical; conditions: for KA/KP ratio of binding constants of alcohol and phosphate: liposome suspensions
Method: Dye-lipid binding. The binding of the dyes to lipid membranes was determined by fluorescence lipid titration^21 with large unilamellar vesicles (LUVs) made of 1-palmitoyl-2-oleoyl-phosphatidylcholine (POPC). The purity of the lipids was checked by 2-dimensional TLC^22. The vesicles were made by extrusion^23 in Tris-NaCl buffer (20 mM Tris, 100 mM NaCl, pH 8.1), using an extrusion apparatus and polycarbonate filters with 100 nm pore size (both Avestin Europe, Mannheim, Germany). Vesicle size was determined by quasielastic light scattering using an argon ion laser (Spectra-Physics, Darmstadt, Germany), a photomultiplier (Brookhaven Instruments, Vienna, Austria) and a correlator (ALV-5000, Langen, Germany). The lipid concentration was determined by a chromogenic enzyme assay (Biomerieux, Marcy I'Etoile, France). The standard deviation of three concentration measurements for every vesicle preparation was always below 4%. Vesicles were stored under argon at 4° C. in 15 ml Falcon Centrifuge Tubes (BD Labware Europe, Le Pont de Claix, France) and used within three days.
To measure dye binding constants, we prepared 1 mM solutions of the dyes 1-3 by ultrasonication in Ethanol (1) or Tris-NaCl buffer (2,3). […] In the same buffer, suspensions of POPC vesicles with concentrations ranging from 100 nM to 10 mM were prepared by dilution of stock solutions. Dye and lipid were pre-thermostatted to 25° C. […] The fluorescence emission recorded at 600 nm with excitation at 488 nm was used for the evaluation of the partition coefficients.
Dye binding to lipid. When styryl hemicyanines bind to lipid bilayers, their quantum yield of fluorescence is enhanced. […] We take advantage of that effect to examine the binding of Di-4-ASPP phosphate and Di-4-ASPP alcohol to lipid membranes by fluorescence titration^21. For comparison Di-4-ASPBS was also included in the investigation.
Dispersions of large lipid vesicles (Ø≈100 nm) were made from palmitoyl-oleoyl-phosphatidylcholine (POPC) with lipid concentrations ranging over five orders of magnitude. […] The fluorescence intensity was enhanced with increasing concentration of lipid for all three dyes. The enhancement was shifted to higher lipid concentrations in the order Di-4-ASPP alcohol, Di-4-ASPBS and Di-4-ASPP phosphate.
Binding. The dyes Di-10-phosphato-ASPBS (Di-10P-ASPBS) and Di-12-phosphato-ASPBS (Di-12P-ASPBS) as well as the corresponding products after enzymatic hydrolysis Di-10-hydroxy-ASPBS (Di-10A-ASPBS) and Di-12-hydroxy-ASPBS (Di-12A-ASPBS) were synthesized by organic chemical methods. Their binding to lipid membranes was tested by fluorescence lipid titration (cf. page 15, section dye binding to lipid). The binding constants amounted to 27 M^−1 (Di-10P-ASPBS), 250,000 M^−1 (Di-10A-ASPBS), 2100 M^−1 (Di-12P-ASPBS) and 3,000,000 M^−1 (Di-12P-ASPBS) (FIGS. 14 and 15 (center and right hand side)). The difference in binding constants between dye alcohol and dye phosphates (or dye precursors) therefore amounted to a factor of 10,000 for the pair Di-10P-ASPBS/Di-10A-ASPBS and to a factor of 1000 for the pair Di-12P-ASPBS/Di-12A-ASPBS. The binding curve for the more lipophilic pair Di-12P-ASPBS/Di-12A-ASPBS is shifted to […] lipid concentrations.

[2] = test system: HEK 293 cells expressing fusion protein of plasma membrane anchor and PLAP; assay: Staining of HEK 293 cells through overexpressed membrane-bound phosphatase; type: cell-based
Source text: FIG. 13A to C: Staining of transfected HEK 293 cells with a voltage sensitive dye by activation of binding through an overexpressed, membrane-bound phosphatase. HEK 293 cells were cotransfected with a vector coding for GFP and a vector coding for a fusion protein of a plasma membrane anchor and phosphatase from the human placenta. A. fluorescence image showing the GFP fluoresence of a transfected cell (excitation filter 450/50 nm, emission filter 510 nm longpass; dichroic mirror: 505 nm). B. The voltage sensitive fluorescent dye Di-8-phosphato-ASPBS (cf. FIG. 11, bottom) was added to the incubation medium. […] C. […] The images shown are optimized for contrast and intensity.
(§1) FIG. 16. Genetically Targeted Staining of HEK293 cells with 1 mM Di-10P-ASPBS. A mixture of stable clones either expressing the membrane-bound phosphatase construct or cytosolic GFP were cultured on the same dish. (A) From left to right: (i) Brightfield image of cells. (ii) Fluorescence image of cells showing cells expressing cytosolic GFP (excitation filter 450/50 nm, emission filter 510 nm, dichroic mirror 505 nm). (iii) Cells expressing phosphatase as obtained by subtraction of GFP expressing cells from image i. (iv) Fluorescence image of cells with filters exc. 535/50 nm, em. 610/75 nm; dichroic mirror 535 nm. The image is normalized to the same level as in row B. (v) autoleveled image iv, showing fluorescence crosstalk of GFP. (B) Enzyme induced staining of cells as measured with filter set exc. 535/50 nm, em. 610/75 nm; dichroic mirror 535 nm. The membrane fluorescence increases over time. (C). Inverted and contrast-enhanced fluorescence images corresponding to row B. (D) Difference images. The image A/iv was subtracted from the images in row B. The resulting images were inverted and contrast was enhanced.
as §1, with “17.” for “16.”, “200 nM Di-12P-ASPBS.” for “1 mM Di-10P-ASPBS.”, “difference” for “and contrast-enhanced fluorescence images corresponding to row B. (D) Difference”, “enhanced. (D) Contrast enhanced images of row C.” for “enhanced.”
Enzyme induced staining. The dye precursors Di-10P-ASPBS and Di-12P-ASPBS were used to effect enzyme induced staining on cells. To test whether the staining is selective, a mixture of two cell populations was cultured in the same dish. One of these stably expressed the phosphatase construct, while the other was stably expressing GFP as a negative marker.

**Q.** For `CCCCN(CCCC)c1ccc(/C=C/c2cc[n+](CCCOP(=O)([O-])O)cc2)cc1` [Di-4-ASPP phosphate], which “average binding constant K to lipid membrane” value ([1]; POPC vesicles, Tris-NaCl buffer pH 8.1, 25° C., dye 0.5 μM) is on record?
**A.** 1140 ± 140 M⁻¹

**Q.** What about the “KA/KP ratio of binding constants of alcohol and phosphate” value ([1]; dye concentration 9.8 μM) of the same compound?
**A.** ≈ 7

**Q.** What about the “KA/KP ratio of binding constants of alcohol and phosphate” value ([1]; low dye concentrations) of the same compound?
**A.** ≈ 16

**Q.** And the “increment of the binding energy Δ(ΔG) relative to the alcohol” value ([1]; −RT ln(K/KA))?
**A.** 6.8 kJ/mol

**Q.** Which “selectivity of staining among precursor dyes” value ([2]; HEK293 and MDCK cells overexpressing ArtPlasMA-PLAP, Di-8P, Di-10P, Di-12P compared) does the source give for Di-12-phosphato-ASPBS [Di-12P-ASPBS] here?
**A.** best selectivity

**Q.** What about the “staining intensity and confinement to phosphatase expressing cells” value ([2]; compared with Di-10P-ASPBS) of the same compound?
**A.** distinctly better

**Q.** What about the “enzyme induced membrane staining in mixed cell populations” value ([2]; phosphatase clones and GFP clones in same dish, 1 mM Di-10P-ASPBS, 200 nM Di-12P-ASPBS) of the same compound?
**A.** allowed enzyme induced membrane staining

**Q.** What about the “difference in binding constants between dye alcohol and dye phosphate (precursor)” value ([1]; pair precursor/product dye) of the same compound?
**A.** 1000 factor

Reference: patent publication US7611863B2, “Selective staining of biomembranes using voltage-sensitive dyes” (Max-Planck-Gesellschaft zur Foerderung der Wissenschaften …, priority 2004, dated 2009)
